Assay results reported in patent US20260048099A1, “SYNERGISTIC INTERACTIONS FOR IMPROVED CANCER TREATMENT” (THE UNITED STATES OF AMERICA, AS REPRESENTED BY THE …, priority 2022, published 2026).

B1: IL-12p70: active IL-12 heterodimer of IL-12A (p35) and IL-12B (p40), referred to as p70 (protein, UniProt P29459 23-219; P29460 23-328, looked up)
Interleukin-12 subunit alpha: RNLPVATPDPGMFPCLHHSQNLLRAVSNMLQKARQTLEFYPCTSEEIDHEDITKDKTSTVEACLPLELTKNESCLNSRETSFITNGSCLASRKTSFMMALCLSSIYEDLKMYQVEFKTMNAKLLMDPKRQIFLDQNMLAVIDELMQALNFNSETVPQKSSLEEPDFYKTKIKLCILLHAFRIRAVTIDRVMSYLNAS
Interleukin-12 subunit beta: IWELKKDVYVVELDWYPDAPGEMVVLTCDTPEEDGITWTLDQSSEVLGSGKTLTIQVKEFGDAGQYTCHKGGEVLSHSLLLLHKKEDGIWSTDILKDQKEPKNKTFLRCEAKNYSGRFTCWWLTTISTDLTFSVKSSRGSSDPQGVTCGAATLSAERVRGDNKEYEYSVECQEDSACPAAEESLPIEVMVDAVHKLKYENYTSSFFIRDIIKPDPPKNLQLKPLKNSRQVEVSWEYPDTWSTPHSYFSLTFCVQVQGKSKREKKDRVFTDKTSATVICRKNASISVRAQDRYYSSSWSEWASVPCS

Key:
[1] = test system: tumor-infiltrating CD8^+T, NK cells and DC populations in EO771 tumors; test: Flow cytometry and IHC of immune infiltrates in EO771 tumors and draining lymph nodes; assay type: in vivo, C57BL/6 mice; details: flow cytometry
Experimental: EO771 tumors were analyzed by flow cytometry and immunohistochemistry (IHC) to explore the changes in the tumor immune phenotype upon hetIL-15 treatment. The shorter treatment schedule consisting of 3 hetIL-15 injections was used for these analyses and the tumors were assessed 48 h after the last injection (FIG. 1A). […] Overall, hetIL-15 administration altered the tumor microenvironment by promoting the intratumoral infiltration of activated cytotoxic T and NK cells, as we previously reported (Bergamaschi et al., 2020; Ng et al., 2017).
Guided by our transcriptomic data and our recent report (Bergamaschi et al., 2020), we established a flow cytometry staining protocol (FIG. 3B) that allows distinction of different myeloid cell populations (Bottcher et al., 2018; Guilliams et al., 2016). CD103^+cDC1s were defined as Lin(NK1.1,CD19,B220,CD3)^negCD64^−MHCII^+CD11c^+CD103^+CD11b^−; CD11b^+cDC2s were defined as Lin(NK1.1,CD19,B220,CD3)^negCD64^−MHCII^+CD11c^+CD103^−CD11b^+ and macrophages were defined as Lin(NK1.1, CD19,B220,CD3)^negCD64^+F4/80^+. […] Importantly, tumor infiltration by both […] and CD103^intCD11b^+DCs inversely correlated with the EO771 tumor size in hetIL-15 treated animals 48 hrs after the 3rd hetIL-15 injection (FIG. 3F). In contrast, no correlation between intratumoral CD11b^+cDC2s and tumor size was observed (FIG. 3F).
Tissue samples, including tumors, were fixed in 10% neutral buffered formalin (NBF, Sigma) then routinely processed and paraffin embedded. Tumor and lung sections were dewaxed and rehydrated and then were stained with hematoxylin and eosin (H&E). For immunohistochemistry, sections were antigen-retrieved with heat-induced or enzymatic method. Peroxidase activity was blocked using 1.5% hydrogen peroxide. Sections were blocked with different blocking protocols, depending on the antibody. […]
At necropsy tumors and dLNs were processed for flow cytometric analysis. […] The samples were acquired on a Fortessa (BD Biosciences) flow cytometer, and the data were analyzed using the FlowJo software (Tree Star).

[2] = test system: xenograft models; details: cited from earlier work
[3] = test system: NK-92 cells; test: IFN-γ production by stimulated NK-92 cells; assay type: cell-based; details: stimulation of NK-92 cells

Row | Molecule | Intratumoral CD11b+cDC2 (cells per gram of tissue) [1] | Intratumoral CD103+cDC1 (cells per gram of tissue) [1] | Intratumoral CD103intCD11b+DC (cells per gram of tissue) [1] | Lowest dose with activity in animal models ([2]; doses as low as) | Efficacy and tolerability ([2]; xenograft models) | IFN-γ production [3]
1 | CC(C)(C)c1cc(NC(=O)Nc2ccc(-c3cn4c(n3)sc3cc(OCCN5CCOCC5)ccc34)cc2)no1.Cl.Cl [AC220, N-(5-tert-butyl-isoxazol-3-yl)-N′-{4-[7-(2-morpholin-4-yl-ethoxy)imidazo[2,1-b][1,3]benzothiazol-2-yl]phenyl}urea dihydrochloride] | increased infiltration of CD11b^+cDC2s | a minor effect on CD103+cDC1s, decreasing this DC population | no significant difference | 1 mg/kg | good efficacy and tolerability | 
2 | B1 |  |  |  |  |  | results in IFN-γ production
